Activity, IC50 and EC50 data for 18 molecules are collected here from ChEMBL document CHEMBL3822371, “Rapid Discovery and Structure-Activity Relationships of Pyrazolopyrimidines That Potently Suppress Breast Cancer Cell Growth via SRC Kinase Inhibition with Exceptional Selectivity over ABL Kinase” (J Med Chem, 2016).

Activity calls are given as the source filed them. The rule behind the calls is not given here.

Data set [1] concerns MCF7. As to the kind of experiment: Antiproliferative activity against human MCF7 cells assessed as reduction in cell confluence level at […] after 5 days by microscopy based time-lapse imaging assay. It is filed as functional.
The target of data set [2] is Proto-oncogene tyrosine-protein kinase receptor Ret (Homo sapiens, UniProt P07949). As to the kind of experiment: Inhibition of human RET using poly[Glu,Tyr]4:1 as substrate in presence of [gamma-33P]ATP.
Data set [3] concerns the target Platelet-derived growth factor receptor alpha (Homo sapiens, UniProt P16234). The data set can be described thus: Inhibition of human PDGFRalpha using poly[Glu,Tyr]4:1 as substrate in presence of [gamma-33P]ATP.
Data set [4] deals with Serine/threonine-protein kinase mTOR (Homo sapiens, UniProt P42345). The data set can be described thus: Inhibition of human mTOR using poly[Glu,Tyr]4:1 as substrate in presence of [gamma-33P]ATP.
Data set [5] deals with Mast/stem cell growth factor receptor Kit (Homo sapiens, UniProt P10721). The data set can be described thus: Inhibition of human KIT using poly[Glu,Tyr]4:1 as substrate in presence of [gamma-33P]ATP.
The subject of data set [6] is MCF7. As to the kind of experiment: cells. The settings on record: Homo sapiens, MCF7, 120 h.
Data set [7] relates to MDA-MB-231. As to the kind of experiment: cells. The settings on record: Homo sapiens, MDA-MB-231, 120 h.
The target in data set [8] is Tyrosine-protein kinase ABL1 (Homo sapiens, UniProt P00519).
Data set [9] addresses Proto-oncogene tyrosine-protein kinase Src (Homo sapiens, UniProt P12931). The data set can be described thus: biochemical. It is filed as cell-based.
Data set [10] in a line: Antiproliferative activity against SRC, YES and FYN deficient mouse SYF cells at 3 to 100 nM. It counts as cell-based. The settings on record: 0.1 µM.
For data set [11], the system named is MCF7. The data set can be described thus: Antiproliferative activity against human MCF7 cells assessed as blockage of cell division at […] after 48 to 120 hrs by microscopy based time-lapse imaging assay. It counts as functional.
Data set [12] concerns the target Tyrosine-protein kinase Yes (Homo sapiens, UniProt P07947). The data set can be described thus: Inhibition of human YES using poly[Glu,Tyr]4:1 as substrate in presence of [gamma-33P] ATP.
The target of data set [13] is Tyrosine-protein kinase Fyn (Homo sapiens, UniProt P06241). The data set can be described thus: Inhibition of human FYN using poly[Glu,Tyr]4:1 as substrate in presence of [gamma-33P]ATP.
For data set [14], the system named is MCF7. As to the kind of experiment: Antiproliferative activity against human MCF7 cells assessed as cell death at […] after 48 to 120 hrs by microscopy based time-lapse imaging assay. It is filed as functional.

Sequence of Proto-oncogene tyrosine-protein kinase receptor Ret (P07949 whole entry): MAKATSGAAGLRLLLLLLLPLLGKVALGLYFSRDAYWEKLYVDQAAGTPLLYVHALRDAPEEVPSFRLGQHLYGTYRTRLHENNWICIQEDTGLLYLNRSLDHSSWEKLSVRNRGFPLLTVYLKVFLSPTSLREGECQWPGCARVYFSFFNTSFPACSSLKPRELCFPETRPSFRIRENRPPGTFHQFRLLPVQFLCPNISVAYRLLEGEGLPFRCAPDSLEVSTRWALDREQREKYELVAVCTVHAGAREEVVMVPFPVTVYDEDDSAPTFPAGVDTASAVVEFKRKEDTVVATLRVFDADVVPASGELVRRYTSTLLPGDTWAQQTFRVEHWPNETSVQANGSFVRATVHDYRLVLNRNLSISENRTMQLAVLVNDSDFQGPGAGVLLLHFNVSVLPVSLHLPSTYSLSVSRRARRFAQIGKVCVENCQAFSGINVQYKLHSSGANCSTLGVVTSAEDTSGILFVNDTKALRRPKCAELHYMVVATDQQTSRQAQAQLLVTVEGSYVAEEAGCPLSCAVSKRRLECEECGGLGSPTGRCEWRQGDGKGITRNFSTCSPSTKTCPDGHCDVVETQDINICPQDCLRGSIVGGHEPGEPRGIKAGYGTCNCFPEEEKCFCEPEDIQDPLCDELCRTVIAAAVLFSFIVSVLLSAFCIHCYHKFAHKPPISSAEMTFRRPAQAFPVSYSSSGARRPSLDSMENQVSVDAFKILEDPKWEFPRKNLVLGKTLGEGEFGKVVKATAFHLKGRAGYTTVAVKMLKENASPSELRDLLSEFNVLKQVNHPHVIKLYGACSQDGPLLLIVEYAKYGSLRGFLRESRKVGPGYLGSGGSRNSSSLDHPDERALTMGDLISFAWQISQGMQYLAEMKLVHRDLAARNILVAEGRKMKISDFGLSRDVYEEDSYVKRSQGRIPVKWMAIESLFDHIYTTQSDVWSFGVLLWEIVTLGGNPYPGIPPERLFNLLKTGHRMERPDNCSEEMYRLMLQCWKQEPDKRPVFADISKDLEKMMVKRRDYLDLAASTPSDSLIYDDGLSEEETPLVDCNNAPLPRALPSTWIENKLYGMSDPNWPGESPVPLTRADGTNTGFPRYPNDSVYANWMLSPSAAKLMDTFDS
Sequence of Mast/stem cell growth factor receptor Kit (P10721 whole entry): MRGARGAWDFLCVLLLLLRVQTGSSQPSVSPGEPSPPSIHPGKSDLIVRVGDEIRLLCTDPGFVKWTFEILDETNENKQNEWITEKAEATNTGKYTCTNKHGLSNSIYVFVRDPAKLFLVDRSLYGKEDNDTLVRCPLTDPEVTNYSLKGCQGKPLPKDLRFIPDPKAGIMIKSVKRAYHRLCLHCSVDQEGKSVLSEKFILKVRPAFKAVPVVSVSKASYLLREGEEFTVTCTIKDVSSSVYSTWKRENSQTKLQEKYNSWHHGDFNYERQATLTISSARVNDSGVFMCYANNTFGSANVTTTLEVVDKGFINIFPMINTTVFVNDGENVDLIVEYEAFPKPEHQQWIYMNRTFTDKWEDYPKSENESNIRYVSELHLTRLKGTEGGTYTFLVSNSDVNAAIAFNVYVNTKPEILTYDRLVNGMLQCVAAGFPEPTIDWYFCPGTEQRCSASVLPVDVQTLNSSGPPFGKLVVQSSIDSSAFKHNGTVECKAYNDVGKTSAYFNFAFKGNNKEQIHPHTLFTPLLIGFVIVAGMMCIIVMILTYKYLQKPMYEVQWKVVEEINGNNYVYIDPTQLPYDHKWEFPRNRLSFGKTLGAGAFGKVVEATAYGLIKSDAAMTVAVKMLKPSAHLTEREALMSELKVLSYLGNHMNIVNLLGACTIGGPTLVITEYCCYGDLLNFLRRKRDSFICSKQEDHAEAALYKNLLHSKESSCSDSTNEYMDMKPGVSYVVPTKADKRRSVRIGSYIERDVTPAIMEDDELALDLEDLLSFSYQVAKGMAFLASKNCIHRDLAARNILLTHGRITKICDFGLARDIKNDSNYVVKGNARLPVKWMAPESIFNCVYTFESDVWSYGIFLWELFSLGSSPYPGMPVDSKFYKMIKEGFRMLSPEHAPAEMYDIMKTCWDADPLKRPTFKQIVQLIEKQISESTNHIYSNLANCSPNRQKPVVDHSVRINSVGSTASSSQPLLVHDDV
Sequence of Platelet-derived growth factor receptor alpha (P16234 whole entry): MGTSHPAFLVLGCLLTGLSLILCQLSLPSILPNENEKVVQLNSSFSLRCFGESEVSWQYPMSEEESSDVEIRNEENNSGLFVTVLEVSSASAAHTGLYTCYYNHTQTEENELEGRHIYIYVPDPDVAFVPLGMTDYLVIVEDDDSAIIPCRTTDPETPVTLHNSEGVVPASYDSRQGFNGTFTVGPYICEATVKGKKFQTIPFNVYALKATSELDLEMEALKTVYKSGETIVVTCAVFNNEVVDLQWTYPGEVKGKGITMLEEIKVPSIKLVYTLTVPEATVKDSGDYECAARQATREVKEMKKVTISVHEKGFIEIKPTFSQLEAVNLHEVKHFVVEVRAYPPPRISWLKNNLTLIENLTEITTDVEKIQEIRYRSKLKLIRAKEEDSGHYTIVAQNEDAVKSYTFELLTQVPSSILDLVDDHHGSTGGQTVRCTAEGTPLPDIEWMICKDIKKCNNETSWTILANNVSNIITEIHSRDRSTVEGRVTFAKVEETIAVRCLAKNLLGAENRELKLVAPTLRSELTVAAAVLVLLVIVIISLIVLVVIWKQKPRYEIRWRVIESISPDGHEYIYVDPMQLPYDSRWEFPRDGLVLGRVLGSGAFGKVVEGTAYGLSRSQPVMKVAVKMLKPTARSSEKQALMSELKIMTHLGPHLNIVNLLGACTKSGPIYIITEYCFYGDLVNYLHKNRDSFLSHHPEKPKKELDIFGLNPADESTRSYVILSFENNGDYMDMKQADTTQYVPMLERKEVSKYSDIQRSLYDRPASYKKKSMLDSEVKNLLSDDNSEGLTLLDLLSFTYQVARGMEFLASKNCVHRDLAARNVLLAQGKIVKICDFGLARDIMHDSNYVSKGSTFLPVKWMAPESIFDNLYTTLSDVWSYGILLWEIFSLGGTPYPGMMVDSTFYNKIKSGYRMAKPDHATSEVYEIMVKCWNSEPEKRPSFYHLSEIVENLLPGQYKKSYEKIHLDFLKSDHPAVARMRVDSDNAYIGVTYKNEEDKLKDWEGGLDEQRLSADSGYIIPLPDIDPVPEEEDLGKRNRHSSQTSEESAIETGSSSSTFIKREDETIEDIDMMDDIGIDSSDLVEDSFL
Sequence of Proto-oncogene tyrosine-protein kinase Src (P12931 2-536 limits assumed): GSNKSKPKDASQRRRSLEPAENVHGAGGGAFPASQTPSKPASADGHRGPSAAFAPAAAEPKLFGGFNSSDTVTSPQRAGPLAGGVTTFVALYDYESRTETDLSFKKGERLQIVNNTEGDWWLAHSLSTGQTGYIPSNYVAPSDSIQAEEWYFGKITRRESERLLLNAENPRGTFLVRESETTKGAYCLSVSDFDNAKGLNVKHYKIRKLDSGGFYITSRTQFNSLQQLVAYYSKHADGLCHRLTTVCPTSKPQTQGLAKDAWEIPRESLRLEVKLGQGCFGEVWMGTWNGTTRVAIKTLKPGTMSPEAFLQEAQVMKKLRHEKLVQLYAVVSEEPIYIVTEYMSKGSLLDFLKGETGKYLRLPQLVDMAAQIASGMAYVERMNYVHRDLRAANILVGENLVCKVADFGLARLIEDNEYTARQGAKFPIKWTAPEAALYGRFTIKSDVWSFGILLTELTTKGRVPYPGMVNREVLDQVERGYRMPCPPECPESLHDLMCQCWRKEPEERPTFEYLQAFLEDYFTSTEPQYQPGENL
Sequence of Tyrosine-protein kinase Yes (P07947 whole entry): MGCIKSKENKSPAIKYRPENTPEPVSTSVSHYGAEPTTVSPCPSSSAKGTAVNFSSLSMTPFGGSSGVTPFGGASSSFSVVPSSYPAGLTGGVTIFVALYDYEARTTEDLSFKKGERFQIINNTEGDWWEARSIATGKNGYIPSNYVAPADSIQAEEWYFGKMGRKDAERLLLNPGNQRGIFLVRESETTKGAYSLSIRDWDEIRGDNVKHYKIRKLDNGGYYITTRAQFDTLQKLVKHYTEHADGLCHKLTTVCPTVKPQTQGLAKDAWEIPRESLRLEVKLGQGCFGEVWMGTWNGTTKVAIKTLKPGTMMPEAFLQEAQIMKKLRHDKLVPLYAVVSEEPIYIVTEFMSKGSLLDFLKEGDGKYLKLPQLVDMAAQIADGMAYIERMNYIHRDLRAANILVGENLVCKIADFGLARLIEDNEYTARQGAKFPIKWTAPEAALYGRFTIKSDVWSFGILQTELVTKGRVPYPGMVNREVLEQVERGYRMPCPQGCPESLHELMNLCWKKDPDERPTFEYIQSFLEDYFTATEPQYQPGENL
Sequence of Tyrosine-protein kinase Fyn (P06241 whole entry): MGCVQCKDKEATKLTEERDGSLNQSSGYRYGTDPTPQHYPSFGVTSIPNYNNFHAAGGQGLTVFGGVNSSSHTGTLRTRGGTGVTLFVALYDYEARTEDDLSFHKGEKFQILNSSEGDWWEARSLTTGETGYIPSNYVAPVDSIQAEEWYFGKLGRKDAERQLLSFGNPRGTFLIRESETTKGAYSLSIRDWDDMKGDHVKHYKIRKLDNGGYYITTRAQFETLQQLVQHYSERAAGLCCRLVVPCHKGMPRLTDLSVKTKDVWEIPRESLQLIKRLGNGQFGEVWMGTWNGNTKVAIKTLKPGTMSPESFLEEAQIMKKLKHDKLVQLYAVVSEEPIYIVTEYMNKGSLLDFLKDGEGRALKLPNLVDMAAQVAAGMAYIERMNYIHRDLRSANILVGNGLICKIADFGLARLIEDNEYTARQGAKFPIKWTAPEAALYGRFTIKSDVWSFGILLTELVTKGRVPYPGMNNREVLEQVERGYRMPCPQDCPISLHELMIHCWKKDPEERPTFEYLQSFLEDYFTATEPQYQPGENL

Turning to `Cc1ccc(-c2nn(CCN3CCC(CCN(C)C)CC3)c3ncnc(N)c23)cc1`, the result in [1] was Active. Moreover, the IC50 in data set [2], in data set [3], in [4] and in data set [5] was > 10 µM each time.

For the molecule `COc1ccc(-c2nn(CCN3CCC(CN(C)C)CC3)c3ncnc(N)c23)cc1OC`, in data set [6], the EC50 (as a rule, the concentration that produces a half-maximal response) came to 18.3 µM.

`CN(C)C1CCN(CCn2nc(-c3ccc4c(ccn4C(=O)OC(C)(C)C)c3)c3c(N)ncnc32)CC1` came in with an EC50 in data set [7] of 4.15 µM. This counts as single-digit micromolar.

Regarding `Cc1ccc(-c2nn(CCN3CCC(N(C)C)CC3)c3ncnc(N)c23)cc1`, in data set [1], the result was Active. The 50% inhibitory concentration (IC50) (usually the concentration that gives 50% inhibition) was 6.58 µM in data set [2], > 10 µM in data set [3], > 10 µM in data set [4] and > 10 µM in data set [5].

For `CN(C)C1CCN(CCn2nc(-c3ccc(NC(=O)OC(C)(C)C)c(O)c3)c3c(N)ncnc32)CC1`, a half-maximal effect in data set [7] (EC50) was put at 9.71 µM.

Consider `Cc1ccc(-c2nn(CCN3CCN(C)CC3)c3ncnc(N)c23)cc1`, for which the result in data set [1] was Active.

Molecule `CN(C)CC1CCN(CCn2nc(-c3cccc(O)c3)c3c(N)ncnc32)CC1` had an EC50 in data set [6] of 30.3 µM.

Turning to `CN(C)C1CCN(CCn2nc(-c3ccc(NC(=O)OC(C)(C)C)cc3)c3c(N)ncnc32)CC1`, the IC50 was > 10 µM in data set [8] and 0.071 µM in data set [9].

In data set [6], `CCOC(Cn1nc(-c2ccc(OC)c(OC)c2)c2c(N)ncnc21)OCC` came in with an EC50 of 6.1 µM.

For the molecule `COc1cc(-c2nn(CCN3CCC(CN(C)C)CC3)c3ncnc(N)c23)ccc1NC(=O)OC(C)(C)C`, in data set [10], the Activity result is “Non-toxic”.

`Cc1ccc(-c2nn(CCN3CCC(CN(C)C)CC3)c3ncnc(N)c23)cc1`: the outcome in [1] was Active. The IC50 in data set [2], in [3], in [4] and in [5] was > 10 µM throughout.

Consider `COc1cc(-c2nn(CCN3CCC(N(C)C)CC3)c3ncnc(N)c23)ccc1NCc1cccnc1`, for which, in [7], the EC50 came to 4.14 µM.

`COc1cc(-c2ccn(CCN3CCC(N(C)C)CC3)n2)ccc1NC(=O)OC(C)(C)C` returned an EC50 in data set [7] of 32.6 µM.

`CCOC(Cn1nc(-c2cnc3[nH]ccc3c2)c2c(N)ncnc21)OCC`: the outcome in data set [11] was Active. Further, the IC50 is 0.598 µM in [2]; > 10 µM in [3]; 0.328 µM in data set [4]; 0.566 µM in data set [12]; 1.21 µM in data set [8]; 1.23 µM in [13]. The results for the IC50 in [5] and in data set [9] were > 10 µM and 2.45 µM, respectively.

As for `CN(C)CC1CCN(CCn2nc(-c3cnc4[nH]ccc4c3)c3c(N)ncnc32)CC1`, the IC50 was > 10 µM in data set [3], 8.57 µM in data set [4] and > 10 µM in data set [5]. Besides, the result in data set [14] was Active.

With `CN(C)CC1CCN(CCn2nc(-c3ccc4ncccc4c3)c3c(N)ncnc32)CC1`, the concentration giving a half-maximal response (EC50) in data set [6] stood at 93.6 µM.

`Cc1ccc(-c2nn(C(C)(C)C)c3ncnc(N)c23)cc1`: the IC50 in data set [3] amounted to 0.657 µM; in data set [12] it was 0.036 µM.

`CCOC(Cn1nc(-c2ccc(C)cc2)c2c(N)ncnc21)OCC` showed an EC50 in [6] of 30.9 µM.
